Data published in US9353090B2, “Heterocyclic carboxylic acids as activators of soluble guanylate cyclase” (Boehringer Ingelheim International GmbH, priority 2014, dated 2016).
In brackets after ≈: the same amount, converted by molar mass.

Tests used:
[1] = target: human soluble guanylate cyclase alpha 1 and beta 1 subunits (sGC) (Homo sapiens (Human), UniProt Q02108+Q02153); assay: sGC cellular activator assay (cGMP, HTRF), in the presence and absence of 50% human serum; format: cell-based; details: CHO cells stably expressing human sGC alpha 1/beta 1, preincubated with 40 microM ODQ; cGMP by HTRF; Table 2 does not state whether with or without 50% human serum
Method in brief: (§1)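 First, CHO-sGC (human α1β1) cells get 1 h ODQ at 40 microM with IBMX and 0.1% BSA. Finally, cGMP is quantified by HTRF and EC50 computed.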

[2] = 24 h
[3] = Human liver microsome (HLM) metabolic stability assay; format: in vitro ADME; details: human liver microsomes
Method in brief: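 Remaining parent measured by LC/MS/MS (ESI, MRM) at 5, 15, 30 and 60 min relative to 0 min. Incubation: 1 uM compound, HLMs, NADPH-started, 37° C., 60 min total, single replicate. Slope of ln(% remaining) gives t1/2 = 0.693/slope, then CLint, CLh and % Qh.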

[4] = target: human soluble guanylate cyclase alpha 1 and beta 1 subunits (sGC) (Homo sapiens (Human), UniProt Q02153); assay: sGC cellular activator assay (cGMP, HTRF), in the presence and absence of 50% human serum; format: cell-based; details: CHO cells stably expressing human sGC alpha 1/beta 1, preincubated with 40 microM ODQ; cGMP by HTRF; Table 2 does not state whether with or without 50% human serum
Method in brief: as §1

[5] = physchem; details: kinetic from dmso stock
[6] = pH 2.2, aqueous buffer, Solubility (pH 2.2)
[7] = pH 4.5, aqueous buffer, Solubility (pH 4.5)
[8] = pH 6.8, aqueous buffer, Solubility (pH 6.8)

human soluble guanylate cyclase alpha 1 and beta 1 subunits (sGC) (Homo sapiens (Human), UniProt Q02108+Q02153), sequence (Q02108 whole entry partner): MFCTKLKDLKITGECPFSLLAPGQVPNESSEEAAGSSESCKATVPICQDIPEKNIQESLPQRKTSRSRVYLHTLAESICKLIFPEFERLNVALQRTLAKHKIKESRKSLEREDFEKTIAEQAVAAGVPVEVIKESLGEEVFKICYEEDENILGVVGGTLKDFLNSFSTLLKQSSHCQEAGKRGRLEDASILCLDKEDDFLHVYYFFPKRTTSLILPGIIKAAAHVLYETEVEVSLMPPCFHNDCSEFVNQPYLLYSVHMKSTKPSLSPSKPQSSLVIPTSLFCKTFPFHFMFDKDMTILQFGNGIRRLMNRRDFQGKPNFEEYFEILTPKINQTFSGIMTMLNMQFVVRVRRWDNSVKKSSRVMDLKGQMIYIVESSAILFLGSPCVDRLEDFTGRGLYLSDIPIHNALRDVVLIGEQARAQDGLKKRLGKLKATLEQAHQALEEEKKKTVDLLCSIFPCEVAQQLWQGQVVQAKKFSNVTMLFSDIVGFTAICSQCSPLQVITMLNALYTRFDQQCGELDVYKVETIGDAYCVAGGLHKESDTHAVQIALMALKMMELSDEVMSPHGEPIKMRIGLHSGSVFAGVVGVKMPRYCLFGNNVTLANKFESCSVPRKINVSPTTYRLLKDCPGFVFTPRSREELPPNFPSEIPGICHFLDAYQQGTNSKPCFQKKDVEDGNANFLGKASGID
human soluble guanylate cyclase alpha 1 and beta 1 subunits (sGC) (Homo sapiens (Human), UniProt Q02108+Q02153), sequence (Q02153 whole entry): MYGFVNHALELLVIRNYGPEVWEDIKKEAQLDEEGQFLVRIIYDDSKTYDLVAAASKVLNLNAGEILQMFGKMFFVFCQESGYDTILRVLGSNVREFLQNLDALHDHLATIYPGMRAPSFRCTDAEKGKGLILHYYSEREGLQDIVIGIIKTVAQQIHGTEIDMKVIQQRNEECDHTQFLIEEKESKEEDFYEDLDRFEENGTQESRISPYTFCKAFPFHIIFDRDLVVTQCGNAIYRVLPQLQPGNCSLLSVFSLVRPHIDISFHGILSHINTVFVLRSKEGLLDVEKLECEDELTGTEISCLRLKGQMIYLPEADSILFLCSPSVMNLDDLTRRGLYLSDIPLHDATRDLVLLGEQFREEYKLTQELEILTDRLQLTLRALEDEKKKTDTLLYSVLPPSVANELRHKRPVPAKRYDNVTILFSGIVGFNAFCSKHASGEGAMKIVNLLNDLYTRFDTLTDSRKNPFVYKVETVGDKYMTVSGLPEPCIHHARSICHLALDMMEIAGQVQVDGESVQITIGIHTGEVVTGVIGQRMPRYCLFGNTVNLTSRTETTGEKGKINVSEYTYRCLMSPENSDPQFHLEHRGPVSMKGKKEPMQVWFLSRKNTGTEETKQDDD
human soluble guanylate cyclase alpha 1 and beta 1 subunits (sGC) (Homo sapiens (Human), UniProt Q02153), sequence (Q02108 whole entry partner): as the sequence (Q02108 whole entry partner) above
human soluble guanylate cyclase alpha 1 and beta 1 subunits (sGC) (Homo sapiens (Human), UniProt Q02153), sequence (Q02153 whole entry): as the sequence (Q02153 whole entry) above

Compound	EC50 [1]	Solubility (pH 2.2) [2]	Solubility (pH 4.5) [2]	Solubility (pH 6.8) [2]	Metabolic stability (Qh %), % hepatic blood flow [3]	EC50 [4]	solubility at 24 h [5, 6]	solubility at 24 h [5, 7]	solubility at 24 h [5, 8]
Cc1cc(COc2c(C)cccc2-c2cccc(N3C[C@@H]4C[C@]4(C(=O)O)C3)n2)cc2c1CN(C1CCOC1)CC2 (stereo partly shown) [Compound 25]	16 nM	100 μg/mL	89 μg/mL	62 μg/mL	<24%	–	–	–	–
CO[C@@H]1CN(c2nc(-c3cccc(C)c3OCc3cc(C)c4c(c3)CCN(CC3COCCO3)C4)cs2)CC[C@@H]1C(=O)O (stereo partly shown) [Compound 176]	64 nM	140 μg/mL	95 μg/mL	89 μg/mL	<24%	–	–	–	–
Cc1cc(COc2c(C)cccc2-c2cccc(N3C[C@@H]4C[C@]4(C(=O)O)C3)n2)cc2c1CN(C1CCOC1)CC2 (stereo partly shown) [Compound 26]	9 nM	110 μg/mL	90 μg/mL	67 μg/mL	<24%	–	–	–	–
Cc1c(COc2ccccc2-c2cccc(N3CC[C@@]4(C(=O)O)C[C@H]4C3)n2)ccc2c1CCN(C1CCOCC1)C2 [Compound 3]	–	140 μg/mL	120 μg/mL	60 μg/mL	<24%	3 nM	–	–	–
Cc1cc(COc2c(C)cccc2-c2csc(N3CC[C@@]4(C(=O)O)C[C@H]4C3)n2)cc2c1CN(CC1COCCO1)CC2 (stereo partly shown) [Compound 93]	2 nM	140 μg/mL	70 μg/mL	51 μg/mL	<24%	–	–	–	–
COC[C@H]1N(c2cccc(-c3cccc(C)c3OCc3cc(C)c4c(c3)CCN(C3CCOC3)C4)n2)C[C@@H]2C[C@@]21C(=O)O (single isomer, unassigned) [Compound 52]	12 nM	110 μg/mL	93 μg/mL	76 μg/mL	38%	–	–	–	–
CO[C@H]1CN(c2nc(-c3cccc(C)c3OCc3cc(C)c4c(c3)CCN(CC3COCCO3)C4)cs2)CC[C@H]1C(=O)O (single isomer, unassigned) [Compound 169]	29 nM	130 μg/mL	96 μg/mL	90 μg/mL	<24%	–	–	–	–
Cc1cc(COc2c(C)cccc2-c2cccc(N3CC[C@@]4(C(=O)O)C[C@H]4C3)n2)cc2c1CN(C1CCOCC1)CC2 [Compound 15]	2 nM	–	–	–	51%	–	110 µg/mL (≈ 194 µM)	90 µg/mL (≈ 159 µM)	51 µg/mL (≈ 89.8 µM)
Cc1c(COc2ccccc2-c2cccc(N3CC[C@@]4(C(=O)O)C[C@H]4C3)n2)ccc2c1CCN([C@H]1CCOC1)C2 [Compound 7]	11 nM	–	–	–	45%	–	150 µg/mL (≈ 278 µM)	120 µg/mL (≈ 222 µM)	59 µg/mL (≈ 109 µM)
CCc1cc(COc2c(C)cccc2-c2cccc(N3C[C@@H]4C[C@]4(C(=O)O)[C@H]3COC)n2)cc2c1CN(C1COC1)CC2 [Compound 54]	16 nM	–	–	–	39%	–	130 µg/mL (≈ 223 µM)	90 µg/mL (≈ 154 µM)	81 µg/mL (≈ 139 µM)
Cc1ccc(OCc2ccc3c(c2)CCN(C2COC2)CC3)c(-c2csc(N3C[C@@H]4C[C@]4(C(=O)O)C3)n2)c1 [Compound 148]	67 nM	–	–	–	<24%	–	93 µg/mL (≈ 175 µM)	8.4 µg/mL (≈ 15.8 µM)	1.1 µg/mL (≈ 2.07 µM)
COCc1cc(COc2c(C)cccc2-c2cccc(N3CC[C@H](C(=O)O)[C@H](OC)C3)n2)cc2c1CN(C1CCOC1)CC2 (stereo partly shown) [Compound 284]	231 nM	–	–	–	<24%	–	129 µg/mL (≈ 215 µM)	103 µg/mL (≈ 171 µM)	83.5 µg/mL (≈ 139 µM)
CO[C@@H]1CN(c2nc(-c3cccc(C)c3OCc3ccc4c(c3F)CCN(C3CCOCC3)CC4)cs2)CC[C@@H]1C(=O)O [Compound 266]	5 nM	–	–	–	<24%	–	109 µg/mL (≈ 179 µM)	63.1 µg/mL (≈ 103 µM)	59.4 µg/mL (≈ 97.4 µM)
COC[C@H]1N(c2cccc(-c3cccc(C)c3OCc3ccc4c(c3C)CCN(C3COC3)C4)n2)C[C@@H]2C[C@@]21C(=O)O [Compound 47]	17 nM	–	–	–	<24%	–	110 µg/mL (≈ 193 µM)	95 µg/mL (≈ 167 µM)	84 µg/mL (≈ 147 µM)
COC[C@H]1N(c2cccc(-c3cccc(C)c3OCc3cc(F)c4c(c3)CCN(C3CCOCC3)CC4)n2)C[C@@H]2C[C@@]21C(=O)O [Compound 243]	3 nM	–	–	–	<24%	–	131 µg/mL (≈ 212 µM)	124 µg/mL (≈ 201 µM)	107 µg/mL (≈ 174 µM)
CO[C@H]1CN(c2nc(-c3cccc(C)c3OCc3ccc4c(c3)[C@@H](C)CN(C3CCOCC3)CC4)cs2)CC[C@H]1C(=O)O [Compound 312]	3 nM	–	–	–	<24%	–	155 µg/mL (≈ 256 µM)	143 µg/mL (≈ 236 µM)	146 µg/mL (≈ 242 µM)
CCO[C@@H]1CN(c2cccc(-c3cc(C)ccc3OCc3cc4c(c(OC)c3)CN(C3CCOCC3)CC4)n2)CC[C@@H]1C(=O)O [Compound 231]	13 nM	–	–	–	58%	–	126 µg/mL (≈ 205 µM)	126 µg/mL (≈ 205 µM)	121 µg/mL (≈ 196 µM)
CO[C@@H]1CN(c2cccc(-c3cc(C)ccc3OCc3cc(C)c4c(c3)CCN(C3CCOC3)C4)n2)CC[C@@H]1C(=O)O (stereo partly shown) [Compound 78]	26 nM	110 μg/mL	91 μg/mL	63 μg/mL	<24%	–	–	–	–
Cc1ccc(OCc2cc(C)c3c(c2C)CCN(CC2COCCO2)C3)c(-c2csc(N3CC[C@@]4(C(=O)O)C[C@H]4C3)n2)c1 (stereo partly shown) [Compound 127]	3 nM	–	–	–	<24%	–	130 µg/mL (≈ 215 µM)	17 µg/mL (≈ 28.2 µM)	0.77 µg/mL (≈ 1.28 µM)
CCO[C@H]1CN(c2cccc(-c3cc(C)ccc3OCc3cc4c(c(OC)c3)CN(C3CCOCC3)CC4)n2)CC[C@H]1C(=O)O [Compound 235]	680 nM	–	–	–	50%	–	128 µg/mL (≈ 208 µM)	127 µg/mL (≈ 206 µM)	119 µg/mL (≈ 193 µM)
COC[C@H]1N(c2nccc(-c3cccc(C)c3OCc3cc(C)c4c(c3)CCN(C3CCOCC3)C4)n2)CC2C[C@@]21C(=O)O (stereo partly shown) [Compound 237]	42 nM	–	–	–	<24%	–	156 µg/mL (≈ 260 µM)	136 µg/mL (≈ 227 µM)	143 µg/mL (≈ 238 µM)
COC[C@H]1N(c2cccc(-c3cccc(C)c3OCc3ccc4c(c3)CCN(C3CCOC3)C4)n2)C[C@@H]2C[C@@]21C(=O)O (mixture of isomers) [Compound 45]	76 nM	–	–	–	<24%	–	140 µg/mL	100 µg/mL	81 µg/mL
Cc1c(COc2ccccc2-c2cccc(N3CC[C@@]4(C(=O)O)C[C@H]4C3)n2)ccc2c1CCN(C1CCOCC1)C2 [Compound 6]	3 nM	–	–	–	54%	–	160 µg/mL (≈ 289 µM)	130 µg/mL (≈ 235 µM)	60 µg/mL (≈ 108 µM)
Cc1ccc(OCc2ccc3c(c2C)CCN(C2CCOCC2)C3=O)c(-c2cccc(N3CC[C@@]4(C(=O)O)C[C@H]4C3)n2)c1 [Compound 202]	9 nM	–	–	–	62%	–	84 µg/mL (≈ 144 µM)	10 µg/mL (≈ 17.2 µM)	0.1 µg/mL (≈ 0.172 µM)
CO[C@H]1CN(c2cccc(-c3cc(C)ccc3OCc3ccc4c(c3C)CCN(C3CCOCC3)C4=O)n2)CC[C@H]1C(=O)O [Compound 205]	52 nM	–	–	–	<24%	–	109 µg/mL (≈ 182 µM)	42.6 µg/mL (≈ 71 µM)	10.8 µg/mL (≈ 18 µM)
Cc1cccc(-c2csc(N3CC[C@@]4(C(=O)O)C[C@H]4C3)n2)c1OCc1ccc2c(c1C)CCN(CC1COCCO1)C2 (stereo partly shown) [Compound 86]	2 nM	–	–	–	41%	–	120 µg/mL (≈ 203 µM)	71 µg/mL (≈ 120 µM)	57 µg/mL (≈ 96.6 µM)
